Consider 37 compounds from patent publication US11390625B2, “Aryl-phosphorus-oxygen compound as EGFR kinase inhibitor” (Chia Tai Tianqing Pharmaceutical Group Co., Ltd., priority 2017, dated 2022).

Each structure is given as a SMILES string. A value given as a limit tells only on which side of the number the result lay.

In assay [1] the test system is Ba/F3 (Δ19del/T790M/C797S) xenograft. The assay can be described thus: In vivo efficacy (1): Ba/F3 (Δ19del/T790M/C797S) subcutaneous xenograft (CDX) in BALB/c nude mice.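 Also: female nude mice, dosing begun at mean tumor size near 80–120 mm^3, tumors measured by caliper twice weekly, volume in mm^3 computed as 0.5×long×short diameter squared.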
Method: BALB/c nude mice, female, 6-8 weeks old, 18-20 g of body weight, were housed in SPF-grade environment, and each cage was individually ventilated (5 mice per cage). […] A total of 48 mice purchased from Beijing Weitonglihua company were used for the study. Each mouse was implanted with cells at the right flank, for tumor growth. The experiment was started when the average tumor volume reached approximately 80-120 mm^3. […] Tumor volume was measured twice a week with a two-dimensional caliper, measured in mm^3 and calculated by the following formula: V=0.5a×b^2, wherein a and b are the long and short diameters of the tumor, respectively. Antitumor efficacy was determined by dividing the average increase of the tumor volume of the animals treated with the compound by the average increase of the tumor volume of the untreated animals.
In assay [2] the test system is Ba/F3 (EGFR Δ19del/T790M/C797S) cells. Description: Anti-proliferation experiment on cells (2), Ba/F3 (EGFR Δ19del/T790M/C797S). Type of assay: cell-based. Particulars: for IC50: Ba/F3 EGFR, 72 h, Ba/F3 cells, 3 days, read-out: anti-proliferation effect on cells Ba/F3(Δ19del/T790M/C797S) IC50. The procedure: The compounds ware transferred to a 384-well plate, with 125 nL of compound per well. […] After 3 days, 25 μL of detection reagent was added. The plate was incubated at room temperature for 10 minutes and then read with Envision.

The subject of assay [3] is pEGFR Ba/F3 (EGFR Δ19del/T790M/C797S) cells. Description: Cell phosphorylation inhibition experiment, pEGFR Ba/F3 (EGFR Δ19del/T790M/C797S). The assay is classed as cell-based. The note with it: for IC50: Ba/F3 EGFR, Ba/F3 cells, EGF stimulated, read-out: Effect on cellular EGFR phosphorylation Ba/F3(Δ19del/T790M/C797S) IC50. The procedure:
The test compounds and reference compounds were diluted with 100% DMSO to 10 mM or 1 mM, and then a gradient dilution was performed by using Echo, 150 nL per well, with a three-fold concentration gradient and a ten-point dose response curve. The final concentration of the compounds was 100 μM or 10 μM. The suspension cells was centrifuged at 1000 rp for 5 minutes, suspend in Hanks' balanced salt solution, and added to a 384-well plate containing the compounds at 10 L/120K/well (the cell density of 1.2×10^7), followed by centrifugation at 1200 rpm for 30 s and incubation at 37° C. for 30 min. 5 μL of EGF (which has been diluted with 0.1% BSA Hanks' balanced salt solution) was added to each well, in which the final concentration of EGF was 1 μM. The plate was centrifuged at 1200 rpm for 30 s and incubated at 37° C. for 20 min. 5 μL of 4× lysis buffer containing blocking solution was added to each well, and then the plate was centrifuged at 1200 rpm for 30 s, and incubated at 37° C. for 30 min.

Assay [4] concerns the target EGFR (Δ19del/T790M/C797S) (Homo sapiens, UniProt P00533, C797S/T790M, form not given). The assay can be described thus: Enzyme activity experiment (1): EGFR (Δ19del/T790M/C797S) enzyme inhibition. The assay is classed as biochemical. Particulars: read-out: EGFR (Δ19del/T790M/C797S) IC50. On the procedure:
1) 10 μL of the compounds to be tested and reference compounds diluted to 10 mM were taken into an Echo LDV plate, which were diluted according to the compound profile with Echo.
1) 1×enzyme reaction buffer was prepared: 1× enzyme buffer, 5 mM MgCl2, 1 mM DTT (dithiothreitol), water.
2) A mixed solution of 10 nM enzyme (final concentration of 5 nM) and 2 μM substrate (final concentration of 1 μM) and a solution containing the substrate alone were prepared with the diluted enzyme reaction buffer.
3) 5 μL of the substrate was added into A1-H1, J24-P24 (the number of the well position), and 5 μL of the mixture of the enzyme and substrate was added into the remaining wells.
4) Centrifugation was performed at 1000 rpm at 23° C. for 30 s.
5) Incubation was performed at 23° C. for 15 min.
7) Centrifugation was performed at 1000 rpm at 23° C. for 30 s.
8) Incubation was performed at 23° C. for 60 min.
9) 10 μL of 250 nM TK Antibody-Crypate (a final concentration of 125 nM) and 1×D2 (a final concentration ½ time) prepared with Detection buffer were added.
10) Centrifugation was performed at 1000 rpm at 23° C. for 30 s.
11) Incubation was performed at 23° C. for 60 min.
12) The data was read with Envision, and the ratio was calculated to obtain the IC50 of the compound for inhibiting the enzyme activity.

Chain of EGFR (Δ19del/T790M/C797S) (P00533 25-1210 T790M/C797S limits assumed, form open): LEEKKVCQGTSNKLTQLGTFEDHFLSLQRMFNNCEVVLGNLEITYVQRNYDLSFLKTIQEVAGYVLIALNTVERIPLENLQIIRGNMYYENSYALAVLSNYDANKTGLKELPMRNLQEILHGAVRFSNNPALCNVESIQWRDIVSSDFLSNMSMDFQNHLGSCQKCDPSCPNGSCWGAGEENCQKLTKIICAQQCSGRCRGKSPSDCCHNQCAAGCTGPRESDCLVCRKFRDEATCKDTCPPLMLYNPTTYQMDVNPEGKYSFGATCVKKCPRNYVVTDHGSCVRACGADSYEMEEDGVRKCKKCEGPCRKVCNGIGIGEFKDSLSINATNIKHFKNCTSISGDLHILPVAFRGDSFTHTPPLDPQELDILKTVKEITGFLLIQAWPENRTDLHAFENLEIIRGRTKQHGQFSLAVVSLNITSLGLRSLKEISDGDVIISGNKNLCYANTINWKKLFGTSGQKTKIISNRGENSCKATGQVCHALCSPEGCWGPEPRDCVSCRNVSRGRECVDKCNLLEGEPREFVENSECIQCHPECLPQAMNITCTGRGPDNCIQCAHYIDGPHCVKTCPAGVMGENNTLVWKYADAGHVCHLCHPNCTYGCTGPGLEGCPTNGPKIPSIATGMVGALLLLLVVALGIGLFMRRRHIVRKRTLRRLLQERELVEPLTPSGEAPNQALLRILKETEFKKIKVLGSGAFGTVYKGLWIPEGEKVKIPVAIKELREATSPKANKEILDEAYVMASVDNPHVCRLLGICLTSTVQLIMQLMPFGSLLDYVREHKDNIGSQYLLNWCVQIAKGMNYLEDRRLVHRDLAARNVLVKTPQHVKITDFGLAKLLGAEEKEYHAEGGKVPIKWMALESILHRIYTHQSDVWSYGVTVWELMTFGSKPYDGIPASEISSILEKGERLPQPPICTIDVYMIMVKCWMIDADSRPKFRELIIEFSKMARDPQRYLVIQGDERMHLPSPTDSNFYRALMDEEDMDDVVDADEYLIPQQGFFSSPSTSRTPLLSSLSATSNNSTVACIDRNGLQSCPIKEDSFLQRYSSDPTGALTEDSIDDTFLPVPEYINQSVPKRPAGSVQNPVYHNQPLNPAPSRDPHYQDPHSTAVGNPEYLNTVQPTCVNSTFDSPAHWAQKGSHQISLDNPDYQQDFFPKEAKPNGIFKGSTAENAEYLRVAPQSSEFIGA

`COc1cc(N2CCC(N3CCN(C)CC3)CC2)ccc1Nc1ncc(Cl)c(Nc2ccccc2P(C)(C)=O)n1` [Birgatinib, reference compound]: the “TGI (the tumor inhibition value)” value in assay [1] (15 mg/kg oral daily, 13 consecutive days) is on record as 8.6%. Further, the “Tumor volume Day 0” value in assay [1] (15 mg/kg/day oral, Day 0) was 84 mm^3. The “Tumor volume Day 2” value in assay [1] (15 mg/kg/day oral, Day 2) came out at 124 mm^3. Also, the “Tumor volume Day 5” value in assay [1] (15 mg/kg/day oral, Day 5) is listed as 292 mm^3. The “Tumor volume Day 8” value in assay [1] (15 mg/kg/day oral, Day 8) is reported as 477 mm^3. Further, in assay [1] (15 mg/kg/day oral, Day 10), the “Tumor volume Day 10” value is given as 646 mm^3. Besides, the “Tumor volume Day 12” value in assay [1] (15 mg/kg/day oral, Day 12) stood at 880 mm^3. Moreover, the “Tumor volume Day 13” value in assay [1] (15 mg/kg/day oral, Day 13) is on record as 965 mm^3. Take `COc1cc(N2CCC(N3CCN(C)CC3)CC2)ccc1Nc1ncc(Cl)c(Nc2ccc3[nH]cnc3c2P(C)(C)=O)n1` [Comparative Example 1, reference compound]: the IC50 in assay [2] is > 5000 nM; in assay [3], 1010 nM. For the same compound, the “inhibitory effect on Ba/F3 cells with three mutations (EGFR Δ19del/T790M/C797S)” value in assay [2] (in words) was “almost no inhibitory effect”. For the same compound, in assay [3] (in words), the “inhibitory effect on the phosphorylation of Ba/F3 (Δ19del/T790M/C797S) cells” value is on record as “almost no inhibitory effect”.

With `COc1cc(N2CCC3(CCN(C)CC3)CC2)c(Cl)cc1Nc1ncc(Cl)c(Nc2ccc3sccc3c2P(C)(C)=O)n1` [Compound 1], the IC50 in assay [4] amounted to 2.64 nM. In the case of `COc1cc(N2CCC(N3CCN(C)CC3)CC2)ccc1Nc1ncc(Cl)c(Nc2ccc3cccnc3c2P(C)(C)=O)n1` [Compound 7], in assay [3], the IC50 is 533 nM.

Consider `COc1cc(N2CCC3(CC2)CN(C)C3)c(C)cc1Nc1ncc(Cl)c(Nc2ccc3nccnc3c2P(C)(C)=O)n1` [Compound 8], for which the IC50 in assay [4] is 0.792 nM; in assay [2], 275 nM; in assay [3], 133 nM. Take `COc1cc(N2CCC3(CCN(C)CC3)CC2)c(Cl)cc1Nc1ncc(Cl)c(Nc2ccc3cccnc3c2P(C)(C)=O)n1` [Compound 10]: the IC50 in assay [2] was 6030 nM. On the same count and under the same terms, for `COc1cc(N2CCC(N3CCN(C)CC3)CC2)c(Cl)cc1Nc1ncc(Cl)c(Nc2ccc3ccccc3c2P(C)(C)=O)n1` [Compound 11] the value was 180 nM; for `COc1cc(N2CCC3(CCN(C)CC3)CC2)c(Cl)cc1Nc1ncc(Cl)c(Nc2ccc3c(c2P(C)(C)=O)C(=O)CC3)n1` [Compound 14], 351 nM; for `COc1cc(N2CCC3(CC2)CN(C)C3)c(C)cc1Nc1ncc(Cl)c(Nc2ccc3c(ccn3C)c2P(C)(C)=O)n1` [Compound 15], 583 nM. Regarding `COc1cc(N2CCC3(CC2)CN(C)C3)c(C)cc1Nc1ncc(Cl)c(Nc2ccc3c(c2P(C)(C)=O)CCC3)n1` [Compound 16], the IC50 in assay [4] stood at 0.491 nM; in assay [2], 211 nM. On the same counts, the results for `COc1cc(N2CCC3(CC2)CN(C)C3)c(C)cc1Nc1ncc(OC(=O)N(C)C)c(Nc2ccc3ccccc3c2P(C)(C)=O)n1` [Compound 17] are 856 nM and 4750 nM. On the same counts, the results for `COc1ccc(OCCNCc2cnccn2)cc1Nc1ncc(Cl)c(Nc2ccc3ccccc3c2P(C)(C)=O)n1` [Compound 18] are 25.3 nM and 1650 nM. On the same counts, the results for `COc1ccc(OCCNCc2cccnc2)cc1Nc1ncc(Cl)c(Nc2ccc3ccccc3c2P(C)(C)=O)n1` [Compound 19] are 12.9 nM and 1220 nM.

With `COc1cc(N2CCC3(CC2)CN(CCN(C)C)C3)c(C)cc1Nc1ncc(Cl)c(Nc2ccc3ccccc3c2P(C)(C)=O)n1` [Compound 20], the IC50 in assay [4] is < 0.0508 nM; in assay [2], 214 nM.

In the case of `COc1cc(N2CCC3(CC2)CN(C)C3)c(C)cc1Nc1nc(Nc2ccc3ccccc3c2P(C)(C)=O)c2cc[nH]c2n1` [Compound 22], the IC50 in assay [2] came out at 249 nM. Turning to `COc1cc(N2CCC3(CC2)CN(C)C3)c(C)cc1Nc1ncc(Br)c(Nc2ccc3ccccc3c2P(C)(C)=O)n1` [Compound 23], the results for the IC50 in assay [4], in assay [2] and in assay [3] were 0.0517 nM, 103 nM and 34 nM, respectively. As to `COc1cc(N2CCC3(CC2)CN(C)C3)c(C)cc1Nc1ncc(C(C)=O)c(Nc2ccc3ccccc3c2P(C)(C)=O)n1` [Compound 24], the IC50 in assay [2] was determined as 4080 nM.

`COc1cc(N2CCC3(CC2)CN(C)C3)c(C)cc1Nc1ncc(C2CC2)c(Nc2ccc3ccccc3c2P(C)(C)=O)n1` [Compound 25]: the IC50 worked out at 1.79 nM in assay [4] and 642 nM in assay [2]. On the same counts, the results for `COc1cc(N2CCC3(CC2)CN(C)C3)c(C)cc1Nc1ncc(C#N)c(Nc2ccc3ccccc3c2P(C)(C)=O)n1` [Compound 26] are 0.679 nM and 764 nM. On to `COc1cc(N2CCC3(CC2)CN(C)C3)c(C)cc1Nc1ncc(-c2nnc(C)o2)c(Nc2ccc3ccccc3c2P(C)(C)=O)n1` [Compound 27], for which the IC50 in assay [2] was found to be 2710 nM.

For the compound `COc1ccc(OCCNS(C)(=O)=O)cc1Nc1ncc(Cl)c(Nc2ccc3ccccc3c2P(C)(C)=O)n1` [Compound 29], the IC50 in assay [4] stood at 67.6 nM; in assay [2], 1590 nM. As for `COc1cc(N2CCC3(CC2)CN(CCO)C3)c(C)cc1Nc1ncc(Cl)c(Nc2ccc3ccccc3c2P(C)(C)=O)n1` [Compound 30], the IC50 in assay [2] amounted to 290 nM. Same read-out and setting: the value for `COc1cc(N2CCC3(CC2)CN(C(C)C)C3)c(C)cc1Nc1ncc(Cl)c(Nc2ccc3sccc3c2P(C)(C)=O)n1` [Compound 31] was 242 nM. Turning to `CCc1cc(Nc2ncc(Br)c(Nc3ccc4ccccc4c3P(C)(C)=O)n2)c(OC)cc1N1CCC2(CC1)CN(C)C2` [Compound 32], the IC50 turned out to be 79 nM in assay [2] and 57 nM in assay [3]. For `COc1cc(N2CCC3(CC2)CN(C(C)C)C3)c(C)cc1Nc1ncc(Br)c(Nc2ccc3ccccc3c2P(C)(C)=O)n1` [Compound 33], the IC50 in assay [2] came to 162 nM. The same measure, in the same setting: the value for `COc1cc(N2CCC(N3CCN(C)CC3)CC2)ccc1Nc1ncc(Cl)c(Nc2ccc3c(c2P(C)(C)=O)CCC3)n1` [Compound 35] was 533 nM. The same measure, in the same setting: for `COc1cc(N2CCC(N3CCN(C)CC3)CC2)ccc1Nc1ncc(Br)c(Nc2ccc3c(c2P(C)(C)=O)CCC3)n1` [Compound 38] the value was 371 nM. Take `COc1cc(N2CCC3(CC2)CN(CCN(C)C)C3)c(C)cc1Nc1ncc(Cl)c(Nc2ccc3nccnc3c2P(C)(C)=O)n1` [Compound 39]: the IC50 amounted to 187 nM in assay [2] and 195 nM in assay [3]. Regarding `COc1cc(N2CCC(N3CCN(C)CC3)CC2)ccc1Nc1ncc(Cl)c(Nc2ccc3scnc3c2P(C)(C)=O)n1` [Compound 42], the IC50 in assay [2] stood at 442 nM. Same read-out and setting: the value for `COc1cc(N2CCC(N3CCN(C)CC3)CC2)ccc1Nc1ncc(Cl)c(Nc2ccc3cccnc3c2P(C)(C)=O)n1` [Compound 43] was 496 nM. Regarding `COc1cc(N2CCC(N(C)C)CC2)c(C)cc1Nc1ncc(Br)c(Nc2ccc3nccnc3c2P(C)(C)=O)n1` [Compound 44], in assay [3], the IC50 came to 9 nM. On to `COc1cc(N2CCN(C)CC2)c(C)cc1Nc1ncc(Br)c(Nc2ccc3nccnc3c2P(C)(C)=O)n1` [Example 45], for which the IC50 in assay [2] came out at 87 nM; in assay [3] it was 27 nM. Take `COc1cc(N2CCC(N3CCN(C)CC3)CC2)c(C)cc1Nc1ncc(C)c(Nc2ccc3nccnc3c2P(C)(C)=O)n1` [Example 48]: in assay [2], the IC50 worked out at 152 nM. The same measure, in the same setting: the value for `COc1cc(N2CCC(N3CCN(C)CC3)CC2)c(C)cc1Nc1ncc(Br)c(Nc2ccc3scnc3c2P(C)(C)=O)n1` [Example 51] was 36 nM; that for `COc1cc(N2CCC(N3CCN(C)CC3)CC2)c(Cl)cc1Nc1ncc(Br)c(Nc2ccc3nccnc3c2P(C)(C)=O)n1` [Example 54] was 39 nM; that for `COc1cc(N2CCC3(CCN(C)CC3)CC2)c(C)cc1Nc1ncc(Br)c(Nc2ccc3nccnc3c2P(C)(C)=O)n1` [Example 57] was 26.8 nM.

On to `CCc1cc(Nc2ncc(Br)c(Nc3ccc4nccnc4c3P(C)(C)=O)n2)c(OC)cc1N1CCC2(CCN(C)CC2)CC1` [Example 58], for which the IC50 in assay [2] is 18.6 nM.
